From PubChem BioAssay AID248 (DTP/NCI, 2004)
Values joined by “and” are separate entries in the source; they are usually repeats but may differ in a detail not shown here. Identical values can stand only once. Toxic doses and inconclusive results are not listed.

System: L1210 leukemia ip in BDF1 mice, survival T/C
Experiment: NCI In Vivo Anticancer Drug Screen. Data for tumor model L1210 Leukemia (intraperitoneal) in B6D2F1 (BDF1) mice
Details: endpoint: mean survival time, higher = longer survival
Procedure, shortened: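 Each compound was tested against a transplantable tumor grown in mice. The endpoint was survival, with treated animals benchmarked against vehicle controls as a simple ratio.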

[1] = dose: 100.0 mg/kg/injection, schedule: Q01DX001 (ip), vehicle: saline
[2] = dose: 200.0 mg/kg/injection, schedule: Q01DX001 (ip), vehicle: saline
[3] = dose: 400.0 mg/kg/injection, schedule: Q01DX001 (ip), vehicle: saline
[4] = dose: 100.0 mg/kg/injection, schedule: Q01DX001 (ip), vehicle: carboxymethylcellulose (CMC)
[5] = dose: 200.0 mg/kg/injection, schedule: Q01DX001 (ip), vehicle: carboxymethylcellulose (CMC)
[6] = dose: 400.0 mg/kg/injection, schedule: Q01DX001 (ip), vehicle: carboxymethylcellulose (CMC)
[7] = dose: 100.0 mg/kg/injection, schedule: Q01DX009 (ip), vehicle: Klucel (hydroxypropylcellulose) (HPC)
[8] = dose: 200.0 mg/kg/injection, schedule: Q01DX009 (ip), vehicle: Klucel (hydroxypropylcellulose) (HPC)

## CC(=O)CC(=O)Nc1ccc(Cc2ccc(NC(=O)CC(C)=O)c(C)c2)cc1C
[1]
  T/C: 88 % of control
[2]
  T/C: 94 % of control
[3]
  T/C: 94 % of control

## O=C(/C=C/c1ccccc1)N1CC2CCC(CC2)C1
dose: 100.0 mg/kg/injection, schedule: Q04DX003 (ip), vehicle: saline with Tween-80
  T/C: 95 % of control
dose: 200.0 mg/kg/injection, schedule: Q04DX003 (ip), vehicle: saline with Tween-80
  T/C: 93 % of control

## O=[N+]([O-])c1ccc(/C=N/N2CCN(/N=C/c3ccc([N+](=O)[O-])cc3)CC2)cc1
[1]
  T/C: 96 % of control
[2]
  T/C: 92 % of control
[3]
  T/C: 92 % of control

## O=C1/C(=N/O)CCCc2ccccc21
[4]
  T/C: 103 % of control
[5]
  T/C: 97 % of control
[6]
  T/C: 103 % of control

## N/N=C/NN=C(N)N
dose: 15.0 mg/kg/injection, schedule: Q01DX Z (ip), vehicle: saline
  T/C: 97 % of control
dose: 30.0 mg/kg/injection, schedule: Q01DX Z (ip), vehicle: saline
  T/C: 107 % of control
dose: 60.0 mg/kg/injection, schedule: Q01DX Z (ip), vehicle: saline
  T/C: 100 % of control
dose: 120.0 mg/kg/injection, schedule: Q01DX Z (ip), vehicle: saline
  T/C: 100 % of control
dose: 120.0 mg/kg/injection, schedule: Q01DX Z (oral), vehicle: saline
  T/C: 114 % of control

## CCN(CC)c1ccc(C(=O)OC(C)CNCC(C)CCCC(C)C)cc1 (stereo not drawn)
dose: 75.0 mg/kg/injection, schedule: Q01DX001 (ip), vehicle: carboxymethylcellulose (CMC)
  T/C: 90 % of control
dose: 150.0 mg/kg/injection, schedule: Q01DX001 (ip), vehicle: carboxymethylcellulose (CMC)
  T/C: 94 % of control
dose: 300.0 mg/kg/injection, schedule: Q01DX001 (ip), vehicle: carboxymethylcellulose (CMC)
  T/C: 93 % of control

## CCOC(=O)N(CCCl)C(=O)C(C)C
dose: 100.0 mg/kg/injection, schedule: Q01DX009 (ip), vehicle: saline with Tween-80
  T/C: 92 % of control
dose: 200.0 mg/kg/injection, schedule: Q01DX009 (ip), vehicle: saline with Tween-80
  T/C: 96 % of control
dose: 400.0 mg/kg/injection, schedule: Q01DX009 (ip), vehicle: saline with Tween-80
  T/C: 94 % of control

## O=c1nc(NO)c(Br)cn1C1CCCCO1 (stereo not drawn)
[4]
  T/C: 96 % of control
[5]
  T/C: 96 % of control
[6]
  T/C: 96 % of control

## CCN(CCO)CCNc1ccc(C)c2sc3ccccc3c(=O)c12
dose: 26.0 mg/kg/injection, schedule: Q01DX009 (ip), vehicle: saline
  T/C: 110 % of control
dose: 40.0 mg/kg/injection, schedule: Q01DX009 (ip), vehicle: saline
  T/C: 122 % of control
dose: 50.0 mg/kg/injection, schedule: Q01DX001 (ip), vehicle: saline
  T/C: 105 % of control
dose: 60.0 mg/kg/injection, schedule: Q01DX009 (ip), vehicle: saline
  T/C: 124 % of control
dose: 78.0 mg/kg/injection, schedule: Q04DX003 (ip), vehicle: saline
  T/C: 111 % of control
[1]
  T/C: 116 % of control
dose: 114.0 mg/kg/injection, schedule: Q01DX001 (ip), vehicle: saline
  T/C: 104 % of control
dose: 114.0 mg/kg/injection, schedule: Q04DX003 (ip), vehicle: saline
  T/C: 120 % of control
dose: 135.0 mg/kg/injection, schedule: Q01DX009 (ip), vehicle: saline
  T/C: 95 % of control
dose: 174.0 mg/kg/injection, schedule: Q01DX001 (ip), vehicle: saline
  T/C: 110 % of control
dose: 174.0 mg/kg/injection, schedule: Q04DX003 (ip), vehicle: saline
  T/C: 172 % of control
[2]
  T/C: 121 % of control
dose: 260.0 mg/kg/injection, schedule: Q01DX001 (ip), vehicle: saline
  T/C: 165 % of control

## CC(C)CCCC(C)C1CCC2C3CCC4=C/C(=N/NC(N)=O)CCC4(C)C3CCC12C (stereo not drawn)
dose: 50.0 mg/kg/injection, schedule: Q01DX009 (ip), vehicle: Klucel (hydroxypropylcellulose) (HPC)
  T/C: 97 % of control
[7]
  T/C: 90 % of control
[8]
  T/C: 88 % of control

## O=C(Nc1cccc(O)c1)Nc1ccccc1F
dose: 100.0 mg/kg/injection, schedule: Q01DX001 (ip), vehicle: Klucel (hydroxypropylcellulose) (HPC)
  T/C: 102 % of control
[7]
  T/C: 102 % of control and 90 % of control
dose: 100.0 mg/kg/injection, schedule: Q04DX002 (ip), vehicle: Klucel (hydroxypropylcellulose) (HPC)
  T/C: 97 % of control and 92 % of control
dose: 100.0 mg/kg/injection, schedule: Q04DX003 (ip), vehicle: Klucel (hydroxypropylcellulose) (HPC)
  T/C: 103 % of control
dose: 200.0 mg/kg/injection, schedule: Q01DX001 (ip), vehicle: Klucel (hydroxypropylcellulose) (HPC)
  T/C: 104 % of control
[8]
  T/C: 96 % of control and 101 % of control
dose: 200.0 mg/kg/injection, schedule: Q04DX002 (ip), vehicle: Klucel (hydroxypropylcellulose) (HPC)
  T/C: 98 % of control and 99 % of control
dose: 200.0 mg/kg/injection, schedule: Q04DX003 (ip), vehicle: Klucel (hydroxypropylcellulose) (HPC)
  T/C: 110 % of control
dose: 400.0 mg/kg/injection, schedule: Q01DX001 (ip), vehicle: Klucel (hydroxypropylcellulose) (HPC)
  T/C: 104 % of control
dose: 400.0 mg/kg/injection, schedule: Q01DX009 (ip), vehicle: Klucel (hydroxypropylcellulose) (HPC)
  T/C: 98 % of control and 101 % of control
dose: 400.0 mg/kg/injection, schedule: Q04DX002 (ip), vehicle: Klucel (hydroxypropylcellulose) (HPC)
  T/C: 115 % of control and 89 % of control
dose: 400.0 mg/kg/injection, schedule: Q04DX003 (ip), vehicle: Klucel (hydroxypropylcellulose) (HPC)
  T/C: 98 % of control
